Experimental data taken from US12357711B2, “PSMA binding dual mode radiotracer and therapeutic” (Technische Universität München, priority 2019, dated 2025).

Tested on: SCID mice
Test: Preclinical dosimetry from biodistribution in mice, extrapolated to 70-kg Standard Adult (OLINDA/EXM 1.0)
Format: in vivo
Details: […] bladder voiding interval
Procedure: 3-5 mice were injected per timepoint with a mean 25.6±3.6 MBq of 18F-rhPSMA-7 and 28.5±4.8 MBq of 18F-rhPSMA-7.3, respectively. Mice, severe combined immunodeficiency (SCID) were used for the experiments.
Mice were sacrificed at the following timepoints: • ^18F-rhPSMA-7: 10, 20, 40, 60, 120 and 180 minutes after administration. • ^18F-rhPSMA-7.3: 10, 60, 120, 180 and 300 minutes after administration.
Urine, blood, heart, lung, spleen, pancreas, liver, stomach (emptied), small intestine (emptied), large intestine (emptied), kidneys, bladder, testis, fat, muscle (partial, femoral), femur, tail and brain. Urine was collected with a pipette in the CO2 gas chamber. In case of missing urination in the chamber the bladder was aspirated with an insulin syringe. Blood was withdrawn instantly after sacrifice with an insulin syringe from the heart. All other tissues and organs were dissected and transferred directly in plastic containers.
The counting rates of measurement samples were automatically corrected for decay. The radioactivity distribution ratios (unit: percentage of the injected dose (% ID) in the measurement samples were determined using the equation below. The sum of the counting rates from all measurement samples obtained from one mouse was designated as the counting rate for administrated radioactivity.
The radioactivity distribution ratio per unit weight of the measurement sample (unit: % ID/g) excluding urine and feces samples was determined by using the equation below. The weight of the measurement sample was determined by subtraction of the empty measurement container from the container including the sample.
For consistency of statistical calculations for each radiotracer the same number of time-points for ^18F-rhPSMA-7 and ^18F-rhPSMA-7.3 was used. Therefore, for ^18F-rhPSMA-7 the 10 min and 20 min time points were combined creating a 15 min endpoint.
The time-integral of activity for the accumulation in the significant source organs (AUCs) were generated both with numerical integration and physical decay according to J Juan et al., Journal of Pharmaceutical Sciences, 1993, 82:762-763.
In brief, to calculate a human dosimetry from the biodistribution in the mice, an extrapolation was necessary to account for the differences between the animals and humans. Normal-organ radiation doses were estimated for the 70-kg Standard Adult anatomic model using time-depending organ activity concentrations (in percent of the injected dose per gram, % ID/g) and total-body activities measured in the biodistribution studies in mice.
Tissue activity concentrations in mice were converted to tissue fractional activities in the 70-kg Standard Adult using the relative fractional organ masses in the Standard Adult and the “standard” 25-gramm mouse. Time-dependent total-body activity was fit to an exponential function and the difference between the injected activity and the total-body activity was assumed to be excreted to the urine because activity concentrations in the liver and GI tracer were low at all time points studied.
Organ residence time was calculated by numerical integration using the trapezoidal rule and the rest-of-body ^18F residence times was calculated as the difference between the total-body residence time and the sum of the organ and urine residence times. The bladder contents residence time was estimated using the dynamic voiding model in the OLINDA/EXM 1.0 dosimetry software. Finally, the Standard Adult mean organ dose equivalents (in mSv/MBq) and effective dose (also in mSv/MBq) were then calculated using OLIN DA/EXM 1.0.
Final calculation of radiation absorbed dose and dosimetry from biodistribution in mice: The tissues or organs in which a significant accumulation of radioactivity occurs (i.e., source organ) were kidney, spleen, lung, liver and heart. With respect to activity accumulation and clearance, a rapid clearance from blood and clearance to urine but relatively slow build-up in kidney was found.

CC(C)(C)[Si](F)(c1ccc(C(=O)NC[C@@H](NC(=O)CC[C@@H](C(=O)O)N2CCN(CC(=O)[O-])CCN(CC(=O)[O-])CCN(CC(=O)[O-])CC2)C(=O)N[C@H](CCCCNC(=O)CCC(=O)NCCC[C@@H](NC(=O)CC[C@H](NC(=O)N[C@@H](CCC(=O)O)C(=O)O)C(=O)O)C(=O)O)C(=O)O)cc1)C(C)(C)C.[Ga+3] [rhPSMA7.3, [^19F][^natGa]D-Dap-S-DOTAGA-rhPSMA7]
Adrenals ED Cont.: 5.52E−05 mSv/MBq
Adrenals EDE Cont.: 0.00E000 mSv/MBq
Adrenals dose Alpha: 0.00E000 mSv/MBq
Adrenals dose Beta: 3.12E−03 mSv/MBq
Adrenals dose Photon: 7.93E−03 mSv/MBq
Adrenals dose Total: 1.10E−02 mSv/MBq
Brain ED Cont.: 3.59E−05 mSv/MBq
Brain EDE Cont.: 0.00E000 mSv/MBq
Brain dose Alpha: 0.00E000 mSv/MBq
Brain dose Beta: 3.12E−03 mSv/MBq
Brain dose Photon: 4.07E−03 mSv/MBq
Brain dose Total: 7.19E−03 mSv/MBq
Breasts ED Cont.: 3.34E−04 mSv/MBq
Breasts EDE Cont.: 1.00E−03 mSv/MBq
Breasts dose Alpha: 0.00E000 mSv/MBq
Breasts dose Beta: 3.12E−03 mSv/MBq
Breasts dose Photon: 3.55E−03 mSv/MBq
Breasts dose Total: 6.67E−03 mSv/MBq
Gallbladder Wall ED Cont.: 0.00E000 mSv/MBq
Gallbladder Wall EDE Cont.: 0.00E000 mSv/MBq
Gallbladder Wall dose Alpha: 0.00E000 mSv/MBq
Gallbladder Wall dose Beta: 3.12E−03 mSv/MBq
Gallbladder Wall dose Photon: 7.46E−03 mSv/MBq
Gallbladder Wall dose Total: 1.06E−02 mSv/MBq
Heart Wall ED Cont.: 0.00E000 mSv/MBq
Heart Wall EDE Cont.: 0.00E000 mSv/MBq
Heart Wall dose Alpha: 0.00E000 mSv/MBq
Heart Wall dose Beta: 1.32E−03 mSv/MBq
Heart Wall dose Photon: 5.39E−03 mSv/MBq
Heart Wall dose Total: 6.71E−03 mSv/MBq
Kidneys ED Cont.: 3.59E−04 mSv/MBq
Kidneys EDE Cont.: 4.31E−03 mSv/MBq
Kidneys dose Alpha: 0.00E000 mSv/MBq
Kidneys dose Beta: 5.11E−02 mSv/MBq
Kidneys dose Photon: 2.07E−02 mSv/MBq
Kidneys dose Total: 7.18E−02 mSv/MBq
LLI Wall ED Cont.: 1.91E−03 mSv/MBq
LLI Wall EDE Cont.: 9.53E−04 mSv/MBq
LLI Wall dose Alpha: 0.00E000 mSv/MBq
LLI Wall dose Beta: 3.12E−03 mSv/MBq
LLI Wall dose Photon: 1.28E−02 mSv/MBq
LLI Wall dose Total: 1.59E−02 mSv/MBq
Liver ED Cont.: 3.00E−04 mSv/MBq
Liver EDE Cont.: 0.00E000 mSv/MBq
Liver dose Alpha: 0.00E000 mSv/MBq
Liver dose Beta: 9.70E−04 mSv/MBq
Liver dose Photon: 5.02E−03 mSv/MBq
Liver dose Total: 5.99E−03 mSv/MBq
Lungs ED Cont.: 7.93E−04 mSv/MBq
Lungs EDE Cont.: 7.93E−04 mSv/MBq
Lungs dose Alpha: 0.00E000 mSv/MBq
Lungs dose Beta: 1.95E−03 mSv/MBq
Lungs dose Photon: 4.66E−03 mSv/MBq
Lungs dose Total: 6.61E−03 mSv/MBq
Muscle ED Cont.: 4.83E−05 mSv/MBq
Muscle EDE Cont.: 0.00E000 mSv/MBq
Muscle dose Alpha: 0.00E000 mSv/MBq
Muscle dose Beta: 3.12E−03 mSv/MBq
Muscle dose Photon: 6.55E−03 mSv/MBq
Muscle dose Total: 9.67E−03 mSv/MBq
Osteogenic Cells ED Cont.: 1.32E−04 mSv/MBq
Osteogenic Cells EDE Cont.: 3.97E−04 mSv/MBq
Osteogenic Cells dose Alpha: 0.00E000 mSv/MBq
Osteogenic Cells dose Beta: 6.70E−03 mSv/MBq
Osteogenic Cells dose Photon: 6.52E−03 mSv/MBq
Osteogenic Cells dose Total: 1.32E−02 mSv/MBq
Ovaries ED Cont.: 3.14E−03 mSv/MBq
Ovaries EDE Cont.: 3.92E−03 mSv/MBq
Ovaries dose Alpha: 0.00E000 mSv/MBq
Ovaries dose Beta: 3.12E−03 mSv/MBq
Ovaries dose Photon: 1.26E−02 mSv/MBq
Ovaries dose Total: 1.57E−02 mSv/MBq
Pancreas ED Cont.: 5.70E−05 mSv/MBq
Pancreas EDE Cont.: 0.00E000 mSv/MBq
Pancreas dose Alpha: 0.00E000 mSv/MBq
Pancreas dose Beta: 3.12E−03 mSv/MBq
Pancreas dose Photon: 8.29E−03 mSv/MBq
Pancreas dose Total: 1.14E−02 mSv/MBq
Red Marrow ED Cont.: 1.08E−03 mSv/MBq
Red Marrow EDE Cont.: 1.08E−03 mSv/MBq
Red Marrow dose Alpha: 0.00E000 mSv/MBq
Red Marrow dose Beta: 2.22E−03 mSv/MBq
Red Marrow dose Photon: 6.79E−03 mSv/MBq
Red Marrow dose Total: 9.01E−03 mSv/MBq
Skin ED Cont.: 6.95E−05 mSv/MBq
Skin EDE Cont.: 0.00E000 mSv/MBq
Skin dose Alpha: 0.00E000 mSv/MBq
Skin dose Beta: 3.12E−03 mSv/MBq
Skin dose Photon: 3.83E−03 mSv/MBq
Skin dose Total: 6.95E−03 mSv/MBq
Small Intestine ED Cont.: 6.27E−05 mSv/MBq
Small Intestine EDE Cont.: 0.00E000 mSv/MBq
Small Intestine dose Alpha: 0.00E000 mSv/MBq
Small Intestine dose Beta: 3.12E−03 mSv/MBq
Small Intestine dose Photon: 9.42E−03 mSv/MBq
Small Intestine dose Total: 1.25E−02 mSv/MBq
Spleen ED Cont.: 1.34E−04 mSv/MBq
Spleen EDE Cont.: 1.60E−03 mSv/MBq
Spleen dose Alpha: 0.00E000 mSv/MBq
Spleen dose Beta: 1.52E−02 mSv/MBq
Spleen dose Photon: 1.15E−02 mSv/MBq
Spleen dose Total: 2.67E−02 mSv/MBq
Stomach Wall ED Cont.: 1.22E−03 mSv/MBq
Stomach Wall EDE Cont.: 0.00E000 mSv/MBq
Stomach Wall dose Alpha: 0.00E000 mSv/MBq
Stomach Wall dose Beta: 3.12E−03 mSv/MBq
Stomach Wall dose Photon: 7.02E−03 mSv/MBq
Stomach Wall dose Total: 1.01E−02 mSv/MBq
Testes ED Cont.: 0.00E000 mSv/MBq
Testes EDE Cont.: 0.00E000 mSv/MBq
Testes dose Alpha: 0.00E000 mSv/MBq
Testes dose Beta: 3.12E−03 mSv/MBq
Testes dose Photon: 8.96E−03 mSv/MBq
Testes dose Total: 1.21E−02 mSv/MBq
Thymus ED Cont.: 4.10E−05 mSv/MBq
Thymus EDE Cont.: 0.00E000 mSv/MBq
Thymus dose Alpha: 0.00E000 mSv/MBq
Thymus dose Beta: 3.12E−03 mSv/MBq
Thymus dose Photon: 5.08E−03 mSv/MBq
Thymus dose Total: 8.20E−03 mSv/MBq
Thyroid ED Cont.: 4.14E−04 mSv/MBq
Thyroid EDE Cont.: 2.48E−04 mSv/MBq
Thyroid dose Alpha: 0.00E000 mSv/MBq
Thyroid dose Beta: 3.12E−03 mSv/MBq
Thyroid dose Photon: 5.15E−03 mSv/MBq
Thyroid dose Total: 8.27E−03 mSv/MBq
Total Body ED Cont.: 0.00E000 mSv/MBq
Total Body EDE Cont.: 0.00E000 mSv/MBq
Total Body dose Alpha: 0.00E000 mSv/MBq
Total Body dose Beta: 3.52E−03 mSv/MBq
Total Body dose Photon: 6.33E−03 mSv/MBq
Total Body dose Total: 9.86E−03 mSv/MBq
ULI Wall ED Cont.: 5.85E−05 mSv/MBq
ULI Wall EDE Cont.: 0.00E000 mSv/MBq
ULI Wall dose Alpha: 0.00E000 mSv/MBq
ULI Wall dose Beta: 3.12E−03 mSv/MBq
ULI Wall dose Photon: 8.57E−03 mSv/MBq
ULI Wall dose Total: 1.17E−02 mSv/MBq
Urinary Bladder Wall ED Cont.: 1.14E−02 mSv/MBq
Urinary Bladder Wall EDE Cont.: 1.36E−02 mSv/MBq
Urinary Bladder Wall dose Alpha: 0.00E000 mSv/MBq
Urinary Bladder Wall dose Beta: 1.56E−01 mSv/MBq
Urinary Bladder Wall dose Photon: 7.14E−02 mSv/MBq
Urinary Bladder Wall dose Total: 2.27E−01 mSv/MBq
Uterus ED Cont.: 1.18E−04 mSv/MBq
Uterus EDE Cont.: 1.41E−03 mSv/MBq
Uterus dose Alpha: 0.00E000 mSv/MBq
Uterus dose Beta: 3.12E−03 mSv/MBq
Uterus dose Photon: 2.04E−02 mSv/MBq
Uterus dose Total: 2.36E−02 mSv/MBq
